In PMC6268188, “Comparative Studies of the (Anti) Mutagenicity of Baccharis dracunculifolia and Artepillin C by the Bacterial Reverse Mutation Test” (Molecules, 2012):
Where “and” joins values, the source holds several entries; their conditions need not be identical. Equal values may be shown once. Read-outs that look alike come from different tables or passages of the source.

Key:
[1] = system: S. typhimurium TA98; assay: Antimutagenicity assay (Ames test with known mutagens), strain TA98; assay type: cell-based, Salmonella typhimurium
[2] = system: S. typhimurium TA102; assay: Antimutagenicity assay (Ames test with known mutagens), strain TA102; assay type: cell-based, Salmonella typhimurium
[3] = system: S. typhimurium TA98
[4] = system: S. typhimurium TA100
[5] = 0.69 µg/plate + B[a]P 1.0 μg/plate, TA 98, + S9
[6] = 0.69 µg/plate + NOPD 10.0 μg/plate, TA 98, − S9
[7] = 1.37 µg/plate + B[a]P 1.0 μg/plate, TA 98, + S9
[8] = 1.37 µg/plate + NOPD 10.0 μg/plate, TA 98, − S9
[9] = 2.75 µg/plate + B[a]P 1.0 μg/plate, TA 98, + S9
[10] = 2.75 µg/plate + NOPD 10.0 μg/plate, TA 98, − S9
[11] = 5.49 µg/plate + B[a]P 1.0 μg/plate, TA 98, + S9
[12] = 5.49 µg/plate + NOPD 10.0 μg/plate, TA 98, − S9
[13] = […] + B[a]P 1.0 μg/plate, TA 98, + S9
[14] = […] + NOPD 10.0 μg/plate, TA 98, − S9
[15] = 0.69 µg/plate + AF 10.0 μg/plate, TA 102, + S9
[16] = 1.37 µg/plate + AF 10.0 μg/plate, TA 102, + S9
[17] = 1.37 µg/plate + MMC 0.5 μg/plate, TA 102, − S9
[18] = 2.75 µg/plate + AF 10.0 μg/plate, TA 102, + S9
[19] = 2.75 µg/plate + MMC 0.5 μg/plate, TA 102, − S9
[20] = 5.49 µg/plate + AF 10.0 μg/plate, TA 102, + S9
[21] = 5.49 µg/plate + MMC 0.5 μg/plate, TA 102, − S9
[22] = […] + AF 10.0 μg/plate, TA 102, + S9
[23] = […] + MMC 0.5 μg/plate, TA 102, − S9

## CC(C)=CCc1cc(/C=C/C(=O)O)cc(CC=C(C)C)c1O [ArtC, 3-{4-hydroxy-3,5-di(3-methyl-2-butenyl)phenyl}-2(E)-propenoic acid]
[1]; [5]
  % inhibition: 38%
  antimutagenic effect class: ** (moderate effect (25% - 40% inhibition))
[1]; [6]
  % inhibition: 37%
  Number of revertants (M ± SD)/ plate: 526 ± 12 revertants/plate
  antimutagenic effect class: ** (moderate effect (25% - 40% inhibition))
[1]; [7]
  % inhibition: 43%
  antimutagenic effect class: *** (strong antimutagenic effect (> 40% inhibition))
[1]; [8]
  % inhibition: 38%
  Number of revertants (M ± SD)/ plate: 520 ± 18 revertants/plate
  antimutagenic effect class: ** (moderate effect (25% - 40% inhibition))
[1]; [9]
  % inhibition: 56%
  antimutagenic effect class: *** (strong antimutagenic effect (> 40% inhibition))
[1]; [10]
  % inhibition: 42%
  Number of revertants (M ± SD)/ plate: 484 ± 31 revertants/plate
  antimutagenic effect class: *** (strong antimutagenic effect (> 40% inhibition))
[1]; [11]
  % inhibition: 56%
  antimutagenic effect class: *** (strong antimutagenic effect (> 40% inhibition))
[1]; [12]
  % inhibition: 37%
  Number of revertants (M ± SD)/ plate: 532 ± 27 revertants/plate
  antimutagenic effect class: ** (moderate effect (25% - 40% inhibition))
[1]; [13]
  % inhibition: 62%
  antimutagenic effect class: *** (strong antimutagenic effect (> 40% inhibition))
[1]; [14]
  % inhibition: 41%
  antimutagenic effect class: *** (strong antimutagenic effect (> 40% inhibition))
[2]
  Number of revertants (M ± SD)/ plate: 879 ± 11 revertants/plate and 529 ± 20 revertants/plate
[2]; [15]
  % inhibition: 41%
  Number of revertants (M ± SD)/ plate: 645 ± 23 revertants/plate
  antimutagenic effect class: *** (strong antimutagenic effect (> 40% inhibition))
[2]; 0.69 µg/plate + MMC 0.5 μg/plate, TA 102, − S9
  Number of revertants (M ± SD)/ plate: 1096 ± 19 revertants/plate
[2]; [16]
  % inhibition: 46%
  Number of revertants (M ± SD)/ plate: 595 ± 25 revertants/plate
  antimutagenic effect class: *** (strong antimutagenic effect (> 40% inhibition))
[2]; [17]
  % inhibition: 5%
  Number of revertants (M ± SD)/ plate: 1022 ± 18 revertants/plate
  antimutagenic effect class: * (no antimutagenic effect (< 25% inhibition))
[2]; [18]
  % inhibition: 48%
  Number of revertants (M ± SD)/ plate: 566 ± 17 revertants/plate
  antimutagenic effect class: *** (strong antimutagenic effect (> 40% inhibition))
[2]; [19]
  % inhibition: 7%
  Number of revertants (M ± SD)/ plate: 994 ± 25 revertants/plate
  antimutagenic effect class: * (no antimutagenic effect (< 25% inhibition))
[2]; [20]
  % inhibition: 56%
  Number of revertants (M ± SD)/ plate: 488 ± 14 revertants/plate
  antimutagenic effect class: *** (strong antimutagenic effect (> 40% inhibition))
[2]; [21]
  % inhibition: 12%
  Number of revertants (M ± SD)/ plate: 943 ± 17 revertants/plate
  antimutagenic effect class: * (no antimutagenic effect (< 25% inhibition))
[2]; TA102, MMC
  effect on MMC-induced mutagenicity: did not affect
[2]; [22]
  % inhibition: 52%
  antimutagenic effect class: *** (strong antimutagenic effect (> 40% inhibition))
[2]; [23]
  % inhibition: 18%
  antimutagenic effect class: * (no antimutagenic effect (< 25% inhibition))
[3]; 0.69 µg/plate, TA 98, + S9
  MI (mutagenicity index): 0.9
  Number of revertants (M ± SD)/ plate: 28 ± 3 revertants/plate
[3]; 0.69 µg/plate, TA 98, − S9
  MI (mutagenicity index): 1.0
  Number of revertants (M ± SD)/ plate: 21 ± 3 revertants/plate
[3]; 1.37 µg/plate, TA 98, + S9
  MI (mutagenicity index): 1.1
  Number of revertants (M ± SD)/ plate: 32 ± 1 revertants/plate
[3]; 1.37 µg/plate, TA 98, − S9
  MI (mutagenicity index): 1.2
  Number of revertants (M ± SD)/ plate: 24 ± 4 revertants/plate
[3]; 2.75 µg/plate, TA 98, + S9
  MI (mutagenicity index): 1.0
  Number of revertants (M ± SD)/ plate: 29 ± 3 revertants/plate
[3]; 2.75 µg/plate, TA 98, − S9
  MI (mutagenicity index): 1.4
  Number of revertants (M ± SD)/ plate: 28 ± 5 revertants/plate
[3]; 5.49 µg/plate, TA 98, + S9
  MI (mutagenicity index): 1.1
  Number of revertants (M ± SD)/ plate: 32 ± 2 revertants/plate
[3]; 5.49 µg/plate, TA 98, − S9
  MI (mutagenicity index): 1.5
  Number of revertants (M ± SD)/ plate: 29 ± 1 revertants/plate
[4]; 0.69 µg/plate, TA 100, + S9
  MI (mutagenicity index): 1.0
  Number of revertants (M ± SD)/ plate: 171 ± 1 revertants/plate
[4]; 0.69 µg/plate, TA 100, − S9
  MI (mutagenicity index): 1.2
  Number of revertants (M ± SD)/ plate: 179 ± 4 revertants/plate
[4]; 1.37 µg/plate, TA 100, + S9
  MI (mutagenicity index): 1.0
  Number of revertants (M ± SD)/ plate: 171 ± 2 revertants/plate
[4]; 1.37 µg/plate, TA 100, − S9
  MI (mutagenicity index): 1.1
  Number of revertants (M ± SD)/ plate: 174 ± 4 revertants/plate
[4]; 2.75 µg/plate, TA 100, + S9
  MI (mutagenicity index): 0.9
  Number of revertants (M ± SD)/ plate: 144 ± 2 revertants/plate
[4]; 2.75 µg/plate, TA 100, − S9
  MI (mutagenicity index): 1.1
  Number of revertants (M ± SD)/ plate: 169 ± 6 revertants/plate
